Among the data in ChEMBL document CHEMBL1921767, “Facile synthesis of new 4-aza-podophyllotoxin analogs via microwave-assisted multi-component reactions and evaluation of their cytotoxic activity” (Bioorg Med Chem Lett, 2011) are IC50 values, retold here.

What all share (type): functional, cell-based
One experiment relates to M14. The experiment can be described thus: Cytotoxicity against human M14 cells after 24 hrs by MTT assay. Particulars: M14, 24 h. Background: Formazan colour is commonly taken as a measure of viable cells.
For a further experiment, the system named is MCF7. Briefly: Cytotoxicity against human MCF7 cells after 24 hrs by MTT assay. Particulars: MCF7, 24 h.
The nature of experiment [1]: Cytotoxicity against human SW1116 cells after 24 hrs by MTT assay. Conditions: SW 1116, 24 h.

Converted amounts (≈) assume the structure as drawn. A value given as a limit tells only on which side of the number the result lay.

Usually IC50 stands for the concentration needed to halve the response being measured. A higher IC50 goes with lower potency. For `Cc1nc2c3c(ccc2s1)NC1=C(C(=O)OC1)C3c1ccc(Br)cc1` (racemic), the figures for the half-inhibitory concentration (IC50) (in the experiment on M14; with MCF7; in experiment [1]) were 167 µg/mL (≈ 405 µM), 748 µg/mL (≈ 1810 µM) and 257 µg/mL (≈ 623 µM), respectively.

With `Cc1nc2c3c(ccc2s1)NC1=C(C(=O)OC1)C3c1cccc([N+](=O)[O-])c1` (racemic), the IC50 amounted to 77.9 µg/mL (≈ 205 µM) with M14, 151 µg/mL (≈ 399 µM) with MCF7 and 26 µg/mL (≈ 68.5 µM) in experiment [1].

Turning to `Cc1nc2c3c(ccc2s1)NC1=C(C(=O)OC1)C3c1ccc([N+](=O)[O-])cc1` (racemic), the IC50 (in the experiment on M14; in the experiment on MCF7; in experiment [1]) was > 1000 µg/mL each time.

As for `Cc1nc2c3c(ccc2s1)NC1=C(C(=O)OC1)C3c1ccccc1` (racemic), the values for the IC50 (with M14; with MCF7; in experiment [1]) were > 1000 µg/mL, > 1000 µg/mL and 156 µg/mL (≈ 466 µM), respectively.

For `Cc1ccc(C2C3=C(COC3=O)Nc3ccc4sc(C)nc4c32)cc1` (racemic), the IC50 with M14 was determined as 225 µg/mL (≈ 645 µM); in the experiment on MCF7, 25.7 µg/mL (≈ 73.7 µM); in experiment [1], 122 µg/mL (≈ 350 µM).

As for `COc1ccc(C2C3=C(COC3=O)Nc3ccc4sc(C)nc4c32)cc1` (racemic), the figures for the IC50 (in the experiment on M14; in experiment [1]) were 508 µg/mL (≈ 1390 µM) and > 1000 µg/mL, respectively.

Consider `Cc1nc2c3c(ccc2s1)NC1=C(C(=O)OC1)C3c1ccc(Cl)cc1Cl` (racemic), for which the figures for the 50% inhibitory concentration (IC50) in the experiment on M14 and with MCF7 were > 1000 µg/mL and 539 µg/mL (≈ 1340 µM), respectively.

With `Cc1nc2c3c(ccc2s1)NC1=C(C(=O)OC1)C3c1ccc(O)c([N+](=O)[O-])c1` (racemic), the results for the 50% inhibitory concentration (IC50) (with M14; in the experiment with MCF7; in experiment [1]) were 33.9 µg/mL (≈ 85.7 µM), 56 µg/mL (≈ 142 µM) and 69.4 µg/mL (≈ 176 µM), respectively.

For the compound `COc1cc(C2C3=C(COC3=O)Nc3ccc4sc(C)nc4c32)cc(OC)c1OC` (racemic), the values for the IC50 (in the experiment on M14; with MCF7; in experiment [1]) were > 1000 µg/mL, 686 µg/mL (≈ 1620 µM) and 383 µg/mL (≈ 903 µM), respectively.
